In patent US20250066319A1, “NOVEL ACID ADDITION SALT AND CRYSTALLINE FORM OF (2R, 3S)-2-(3-(4,5-DICHLORO-1H-BENZO[d]IMIDAZOL-1-YL)PROPYL)PIPERIDIN-3-OL” (Daewoong Pharmaceutical Co., Ltd., priority 2021, published 2025):
Structures can show the parent of a compound that is named as a salt.

Assays:
Type in all cases: physicochemical
[1] = Stability confirmation: severe test with respect to temperature, HPLC peak area of main component; conditions: 60° C., relative humidity less than 10%
Protocol: (§1) The acid addition salts prepared in some Examples and Comparative Examples were subjected to stability tests against high temperature and high humidity.
Specifically, the severe tests with respect to temperature were performed by placing 50 mg of a sample in a vial, closing the lid, and then measuring the content of impurities using HPLC (Azura, KNAUER, P6.1 1 L, DAD 6.1 L) after 1 week, 2 weeks, 4 weeks, and 8 weeks while storing in a chamber at 60° C. and a relative humidity of less than 10%.
(§2) At a fixed time after the start of the test, one vial or beaker was taken out from each time point (the number of samples per test: n=1), and impurities were analyzed using HPLC under the conditions shown in Table 3 below. Then, the peak area was determined through integration for all the detected peaks, and then the relative peak area (%) for the main component was calculated and expressed as an average value.

[2] = Hygroscopicity test (weight change in desiccators of constant relative humidity); set-up: scale not given here; conditions: room temperature, one day
Protocol: The hygroscopicity tests of the acid addition salts prepared in Examples 1-1 to 1-6 and Comparative Example 1 were performed.
After one day, the change in weight was measured, then transferred to another desiccator and the previous experiment was repeated. At this time, for sorption analysis, the weight change was measured by moving the sample from a low-humidity desiccator to a high-humidity desiccator, and for desorption analysis, the weight change was measured by transferring the sample from a high-humidity desiccator with high humidity to a low-humidity desiccator.

[3] = Stability confirmation: severe test with respect to moisture, HPLC peak area of main component; conditions: 93% RH, open beaker
Protocol: as §1
And, the severe tests with respect to moisture were performed by placing 50 mg of a sample in a 10 ml beaker, and measuring the content of impurities using HPLC (Azura, KNAUER, P6.1 1 L, DAD 6.1 L) after 1 week, 2 weeks, 4 weeks, and 8 weeks while storing the sample in a 93% RH desiccator in a state that the lid was not closed so that the sample has sufficient contact with the moisture in the air.
as §2

[4] = Differential scanning calorimetry analysis after severe test with respect to temperature; conditions: high temperature condition (60° C.), 1 week and 8 weeks; Dihydrochloride
Protocol: For (2R,3S)-2-(3-(4,5-dichloro-1H-benzo[d]imidazol-1-yl)propyl)piperidin-3-ol monohydrochloride prepared in Example 1-1 and (2R,3S)-2-(3-(4,5-dichloro-1H-benzo[d]imidazol-1-yl)propyl)piperidin-3-ol dihydrochloride prepared in Comparative Example 1, each beaker was taken out 1 week and 8 weeks after the start of the test from the desiccator where the severe tests with respect to temperature were in progress, and the differential scanning calorimetry analysis was performed. At this time, the differential scanning calorimetry analysis was performed using a differential scanning calorimeter (DSC Q20, manufactured by TA Instruments) in a tightly closed pan under nitrogen purge at a scan rate of 10° C./min while raising the temperature from 20° C. to 300° C.

| Molecule | relative peak area for the main component (HPLC) ([1]; after 1 week) [%] | relative peak area for the main component (HPLC) ([1]; after 2 weeks) [%] | relative peak area for the main component (HPLC) ([1]; after 4 weeks) [%] | relative peak area for the main component (HPLC) ([1]; after 8 weeks) [%] | relative peak area for the main component (HPLC) ([1]; initial) [%] | weight change, desorption ([2]; 11% RH) | weight change, desorption ([2]; 33% RH) | weight change, desorption ([2]; 54% RH) | weight change, desorption ([2]; 75% RH) | weight change, sorption ([2]; 11% RH) | weight change, sorption ([2]; 33% RH) | weight change, sorption ([2]; 54% RH) | weight change, sorption ([2]; 75% RH) | weight change, sorption ([2]; 93% RH) | relative peak area for the main component (HPLC) ([3]; after 1 week) [%] | relative peak area for the main component (HPLC) ([3]; after 2 weeks) [%] | relative peak area for the main component (HPLC) ([3]; after 4 weeks) [%] | relative peak area for the main component (HPLC) ([3]; after 8 weeks) [%] | relative peak area for the main component (HPLC) ([3]; initial) [%] | also measured |
| --- | --- | --- | --- | --- | --- | --- | --- | --- | --- | --- | --- | --- | --- | --- | --- | --- | --- | --- | --- | --- |
| (2R,3S)-2-(3-(4,5-dichloro-1H-benzo[d]imidazol-1-yl)propyl)piperidin-3-ol Dioxalate II [Example 1-3] | 99.9 | 99.8 | 99.8 | 99.9 | 99.8 | 100 | 100 | 100.2 | 100.8 | 100 | 100 | 100 | 101.3 | 101.3 | 99.7 | 99.8 | 99.9 | 99.9 | 99.8 | – |
| O[C@H]1CCCN[C@@H]1CCCn1cnc2c(Cl)c(Cl)ccc21 [Example 1-2, (2R,3S)-2-(3-(4,5-dichloro-1H-benzo[d]imidazol-1-yl)propyl)piperidin-3-ol Dioxalate I] | 99.9 | 99.8 | 99.7 | 99.8 | 99.8 | 100 | 101.6 | 102 | 102.9 | 100 | 101.1 | 101.8 | 102.9 | 105.6 | 99.3 | 99.7 | 99.8 | 99.8 | 99.8 | – |
| O[C@H]1CCCN[C@@H]1CCCn1cnc2c(Cl)c(Cl)ccc21 [Example 1-5, (2R,3S)-2-(3-(4,5-dichloro-1H-benzo[d]imidazol-1-yl)propyl)piperidin-3-ol Hemi-Maleate] | – | 99.8 | 99.7 | 99.9 | 99.8 | 99.5 | 99.8 | 99.8 | 100.5 | 100 | 100 | 100.7 | 100.9 | 101.6 | – | 99.8 | 99.8 | 99.9 | 99.8 | – |
| O[C@H]1CCCN[C@@H]1CCCn1cnc2c(Cl)c(Cl)ccc21 [Comparative Example 1, (2R,3S)-2-(3-(4,5-dichloro-1H-benzo[d]imidazol-1-yl)propyl)piperidin-3-ol Dihydrochloride, reference compound] | – | – | – | – | – | – | – | – | – | – | – | – | – | – | – | – | – | – | – | relative peak area for the main component (HPLC) ([1]; after 1 week, Dihydrochloride): 99.7%; relative peak area for the main component (HPLC) ([1]; after 2 weeks, Dihydrochloride): 99.7%; relative peak area for the main component (HPLC) ([1]; after 4 weeks, Dihydrochloride): 99.8%; relative peak area for the main component (HPLC) ([1]; after 8 weeks, Dihydrochloride): 99.7%; relative peak area for the main component (HPLC) ([1]; initial, Dihydrochloride): 99.6%; weight change, desorption ([2]; 11% RH, Dihydrochloride): 102.9; weight change, desorption ([2]; 33% RH, Dihydrochloride): 103.9; weight change, desorption ([2]; 54% RH, Dihydrochloride): 104.7; weight change, desorption ([2]; 75% RH, Dihydrochloride): 105.4; weight change, sorption ([2]; 33% RH, Dihydrochloride): 100.9; weight change, sorption ([2]; 54% RH, Dihydrochloride): 108; weight change, sorption ([2]; 75% RH, Dihydrochloride): 105.4; weight change, sorption ([2]; 93% RH, Dihydrochloride): 128; change in differential scanning calorimetry analysis pattern [4]: shows a change in the differential scanning calorimetry analysis pattern; relative peak area for the main component (HPLC) ([3]; after 1 week, Dihydrochloride): 99.7%; relative peak area for the main component (HPLC) ([3]; after 2 weeks, Dihydrochloride): 99.7%; relative peak area for the main component (HPLC) ([3]; after 4 weeks, Dihydrochloride): 99.7%; relative peak area for the main component (HPLC) ([3]; after 8 weeks, Dihydrochloride): 99.7%; relative peak area for the main component (HPLC) ([3]; initial, Dihydrochloride): 99.6% |
| O[C@H]1CCCN[C@@H]1CCCn1cnc2c(Cl)c(Cl)ccc21 [Example 1-4, (2R,3S)-2-(3-(4,5-dichloro-1H-benzo[d]imidazol-1-yl)propyl)piperidin-3-ol Hemi-Oxalate] | – | – | – | – | – | 101.0 | 101.0 | 101.9 | 103.2 | 100 | 101.0 | 101.6 | 101.9 | 105.4 | – | – | – | – | – | – |
